Tests used:
[1] = system: CHO/C5 cells; test: Growth inhibition, SRB assay, CHO/C5 (RFC-deficient); assay type: cell-based, Chinese hamster
Procedure: Briefly, cells were seeded in triplicate in 96-well plates at their pre-established optimal density (CHO cells: 2,500 cells/100 μL; WiDr and HT29: 3,500 cells/100 μL; WiDr-LF/LV, LS174T: 5,000 cells/100 μL; CaCo2, CaCo2-LF/LV, H292, H28 and MSTO-211H: 6,000 cells/100 μL; H460, SW948 and SW1398: 7,000 cells/100 μL) and were allowed to attach for ∼ 24 h at 37°C in 5% CO2 and 100% humidified incubator. Thereafter, 100 μL of drug dilution without LV, or with 5 μM l-LV/5 μM d-LV/10 μM dL-LV (or any LV alone) were added. Cells were allowed to grow for 72 h at 37°C in 5% CO2 and 100% humidity. The t = 0 h control plate consisted of cells plated on the same day as the other cells, but after 24 h at 37°C in 5% CO2 and 100% humidity, only 100 μL medium was added and the cells were fixed immediately with 50% trichloroacetic acid (TCA) in milliQ water (25 μL per well) and put at 4°C for at least 1 h. Plates were washed five times with water and dried. Cells were stained with the SRB protein dye (0.4% (w/v) in 1% acetic acid. Excess dye was washed away four times with 1% acetic acid and plates were dried again. 200 μL of Tris (10 mM Tris (hydroxymethyl)-aminomethane in MQ) was added and optical density (OD) was read at 492 nm after mixing 2–3 min on a plate shaker.

[2] = target: T1, reduced folate carrier (RFC/SLC19A1) (Homo sapiens, UniProt P41440); test: Inhibition of RFC-mediated [3H]-l-LV influx in CEM-7A cells; assay type: cell-based
T1 construct: CEM-7A cells, which display 30-fold RFC overexpression relative to wild-type CCRF-CEM cells; endogenous in cells; host or cells: CEM-7A (CCRF-CEM variant, RFC+++ 30-fold)
T1 sequence (P41440 1-591): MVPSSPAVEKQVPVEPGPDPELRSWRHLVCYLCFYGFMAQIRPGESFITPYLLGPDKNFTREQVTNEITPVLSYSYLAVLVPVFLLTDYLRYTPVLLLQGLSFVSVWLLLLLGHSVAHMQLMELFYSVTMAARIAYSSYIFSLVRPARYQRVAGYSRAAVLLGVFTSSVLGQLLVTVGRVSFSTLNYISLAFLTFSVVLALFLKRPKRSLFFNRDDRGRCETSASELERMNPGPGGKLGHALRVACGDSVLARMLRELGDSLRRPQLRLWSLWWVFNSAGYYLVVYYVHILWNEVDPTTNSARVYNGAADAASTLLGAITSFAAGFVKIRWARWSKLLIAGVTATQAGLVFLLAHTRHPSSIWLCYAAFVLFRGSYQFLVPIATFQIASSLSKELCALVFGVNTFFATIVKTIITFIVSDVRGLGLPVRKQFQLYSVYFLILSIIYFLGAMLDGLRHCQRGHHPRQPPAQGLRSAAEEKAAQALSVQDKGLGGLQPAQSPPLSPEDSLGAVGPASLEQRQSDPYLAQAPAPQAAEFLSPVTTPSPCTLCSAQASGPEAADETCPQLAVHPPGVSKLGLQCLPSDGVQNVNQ
Procedure: (§1) In order to determine whether the LV isomers were substrates for either folate receptor α (FRα), RFC and/or PCFT, we used model systems with established overexpression of these receptors or transporters ([Westerhof et al., 1995a]; [Westerhof et al., 1995b]; [Lasry et al., 2008]; [Van der Heijden et al., 2009]).
CEM-7A cells (2 × 10^6) were suspended in 1 mL HBSS and the assay was initiated by addition of 25 μL 200 μM [^3H]-l-LV; 5,000 pmol (i.e., 5 μM final concentration). Incubations proceeded for 2 min at 37°C in the absence and presence of increasing amounts of unlabelled LV/antifolate drug. Blanks consisted of a separate incubation at 4°C or incubation with 100-fold molar excess of unlabelled l-LV. [^3H]-l-LV influx was terminated by adding 9 mL ice-cold HBSS, centrifugation and an additional wash of the cells with 10 mL ice-cold buffer. Cell pellets were then assessed for radioactivity. Relative affinities for RFC are expressed as the concentration of unlabelled drug necessary to inhibit [^3H]-l-LV uptake by 50%.

[3] = target: T2, folate receptor α (FRα) (Homo sapiens, UniProt P15328); test: Intact cell competitive binding assay, displacement of [3H]-folic acid from FRα in KB cells
T2 construct: endogenous in cells; host or cells: KB cells (FRα++)
T2 sequence (P15328 25-257): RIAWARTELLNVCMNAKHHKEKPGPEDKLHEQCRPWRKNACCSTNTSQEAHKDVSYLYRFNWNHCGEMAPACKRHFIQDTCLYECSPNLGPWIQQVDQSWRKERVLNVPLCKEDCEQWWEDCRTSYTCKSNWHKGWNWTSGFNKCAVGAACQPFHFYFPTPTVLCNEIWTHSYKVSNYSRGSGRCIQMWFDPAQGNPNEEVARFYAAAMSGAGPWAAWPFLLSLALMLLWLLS
Procedure: as §1
For FRα we used KB cells ([Westerhof et al., 1995b]). An intact cell binding assay for competitive binding was performed as described previously ([Westerhof et al., 1995a]). Briefly, cells were washed with Hanks balanced salt solution and 6 mM glucose (HBSS, pH 7.4), suspended in 1 mL of this solution (1*10^6 for KB cells) and incubated at 4°C for 15 min with 100 pmol [^3H]-folic acid [(^3H)-FA], in the presence and absence of unlabelled folic acid or LV stereoisomers. Cells were collected by centrifugation and analysed for radioactivity. Relative affinities for FRα were defined as the inverse ratio of compound to displace 50% of radioactive folic acid from FRα. The relative affinity of folic acid was set at 1.

50% inhibition of [3H]-l-LV influx (RFC), fold lower concentration than l-LV [2]: 2.5 fold
Molar excess over folic acid required for displacement of [3H]-FA binding from FRα [3]: > 100 fold
Relative affinity for FRα ([3]; 100 pmol [3H]-FA, inverse ratio of amount of drug displacing 50% of [3H]-FA, FA set to 1): 0.0035
SMILES: C#CCC(Cc1cnc2nc(N)nc(N)c2n1)c1ccc(C(=O)N[C@@H](CCC(=O)O)C(=O)O)cc1 (some centres unmarked) [PLX, pralatrexate]
IC50 ([1]; Cricetulus griseus, antifolate alone): 9.5 µM
IC50 ([1]; antifolate + 5 µM l-LV): 48.3 µM
